From the METLIN SMRT retention time set (Domingo-Almenara et al. 2019) come the findings set out here.

This data set is described as follows: gradient 5% acetonitrile 3 min, to 50% in 2 min, to 85% in 15 min, held 3 min, 100 µL/min. The note with it: column: Zorbax Extend-C18 2.1 x 50 mm; eluents: water / acetonitrile, 0.1% formic acid. The gist of the method:
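In both positive and negative ionization mode, a quadrupole time-of-flight mass spectrometer coupled to HPLC analyzed pure standards run in mixtures of ~100 molecules. The Zorbax Extend-C18 column (2.1 × 50 mm, 1.8 μm) was operated at 100 μL/min with water and acetonitrile, each containing 0.1% formic acid. The dead volume was 40 μL and the dwell volume 900 μL. Retention time came from adduct peaks that were computationally picked and individually inspected by hand.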
As for `Cc1ccc(C)c(N2CCN(c3ccnc(SCC(=O)Nc4ccccc4F)n3)CC2)c1`, the RP-LC retention time came to 1010 s.
Regarding `COc1ccc(-c2nc(CNC(=O)C3CCOC3)no2)cc1` (stereo not given), the RP-LC retention time was determined as 677 s.
The compound `NS(=O)(=O)c1ccc2nc(NC(=O)C3=COCCO3)sc2c1` registered an RP-LC retention time of 613 s.
Then `CS(=O)(=O)N1CCOc2ccc(CCC(=O)NC3CCS(=O)(=O)C3)cc2C1` (stereo not given), with 644 s; and `CCn1cc(-c2ccc(F)cc2)cc1C(=O)N1CCCCC1`, with 1060 s.
For `CC(C)Cc1cc(-c2nn3c(-c4ccc(Cl)cc4)nnc3s2)n[nH]1`, the RP-LC retention time was 1100 s.
Then `Cn1nc(-c2nnc(-c3ccccc3)o2)c2c1CCN(S(=O)(=O)c1ccc(C#N)cc1)C2`, with 897 s; and `O=C(c1cccc(F)c1)N1CCN(c2ccc(=O)n(-c3ccc(Cl)cc3)n2)CC1`, with 871 s.
Regarding `O=C(c1ccco1)N1CCCC(c2nn[nH]n2)C1` (stereo not given), the RP-LC retention time was found to be 596 s.
The figure for `O=S(=O)(c1ccc(Cl)cc1)c1nc(-c2ccco2)oc1NCCCn1ccnc1` is 597 s; for `CC(=O)Nc1ccc2nc(-c3ccc(Cl)cc3)cc(OCC(N)=O)c2c1` it is 621 s.
Regarding `Cn1nc2n(c1=O)CCN(Cc1cn[nH]c1-c1ccc(F)cc1)C2`, the RP-LC retention time is 600 s.
The figure for `CCc1sc(NC(=O)CCc2ccccc2)nc1-c1ccccc1` is 1150 s.
Compound `CC(C)N1C(=O)c2cccnc2Sc2cc(NC(=O)C(C)(C)C)ccc21` came in with an RP-LC retention time of 828 s.
Turning to `CCOC(=O)N1CCN(c2cc(C(=O)O)c3cc(NC(=O)CC)ccc3n2)CC1`, the RP-LC retention time came out at 553 s.
For the compound `Cc1ccc(S(=O)(=O)N2CCCC(C(=O)Nc3nnc(Cc4cccs4)o3)C2)cc1` (stereo not given), the RP-LC retention time stood at 810 s.
With `O=C(c1cccc(F)c1)N1CCC[C@H]1c1nc(-c2ccccc2)n[nH]1`, the RP-LC retention time is 685 s.
Consider `CC(C)(C)c1noc(-c2ccc(-n3cnc(C(=O)NC4CCCCC4)c3)nc2)n1`, for which the RP-LC retention time was 1040 s.
The compound `COc1ccc(Cl)cc1NC(=O)N1CCC(c2cc(N)on2)CC1` gave an RP-LC retention time of 760 s.
In turn, `COc1ccc(-c2cnn3c(C)cc(C)nc23)cc1S(=O)(=O)N1CCN(C2CCCCC2)CC1` had an RP-LC retention time of 690 s.
Consider `O=C(O)c1ccccc1SC1CC(=O)N(c2ccccc2OC(F)F)C1=O` (stereo not given), for which the RP-LC retention time is 741 s.
The figure for `CN(CCc1noc(COc2ccc(F)cc2)n1)C(=O)Nc1ccccc1` is 856 s; for `Cc1ccc(S(=O)(=O)N2CC(=O)N(c3cccc(F)c3)C(C)(C(=O)NCc3ccccc3)C2)cc1` (stereo not given) it is 948 s; for `O=C(Cc1csc(SCC(=O)c2ccccc2)n1)Nc1cccc2nsnc12` it is 981 s.
Compound `Cc1noc(-c2ccnc(-n3ncc(C(=O)NC4CCCC4)c3C)c2)n1` returned an RP-LC retention time of 836 s.
With `CC1=C(c2ccc(F)cc2)S(=O)(=O)N=C1N1CCCN(C(=O)c2ccoc2)CC1`, the RP-LC retention time stood at 752 s.
In turn, `CCOc1ccc2ncc(S(=O)(=O)c3ccc(C)c(C)c3)c(N3CCN(CC)CC3)c2c1` returned an RP-LC retention time of 693 s.
In turn, `Cn1nc(CNC(=O)c2ccsc2)c2ccccc21` gave an RP-LC retention time of 735 s.
Turning to `Cc1ncn(CC(=O)Nc2ccccc2Cl)c(=O)c1C`, the RP-LC retention time was 668 s.
Then `Cc1cccc(-c2nc(-c3ccc4c(c3)ncn4CCN3CCCC3)no2)c1`, with 676 s.
Take `CCNC(=O)C1CCCN(c2nc3ncn(CC(=O)Nc4ccc5c(c4)OCO5)c(=O)c3s2)C1` (stereo not given): the RP-LC retention time is 649 s.
On to `CCn1cc(Br)c(C(=O)Nc2ccc(C(C)=O)cc2)n1`, for which the RP-LC retention time was found to be 829 s.
`Cc1nn(-c2nc(-c3ccc(F)cc3)cs2)c(C)c1CC(=O)N1CCc2ccccc2C1` gave an RP-LC retention time of 1220 s.
In turn, `Cc1cc(C)nc(SCc2ccc(C(=O)NCCc3c[nH]c4ccccc34)o2)n1` returned an RP-LC retention time of 894 s.
On to `CC(C)CN1CCN(C(=O)C2CCCN(c3cnc4nccnc4c3)C2)CC1` (stereo not given), for which the RP-LC retention time is 564 s.
As to `CC(C)CN1CCN(S(=O)(=O)c2ccc(-c3nnc(C(C)C)o3)o2)CC1`, the RP-LC retention time was found to be 652 s.
Compound `Cc1sc2ccn(C)c(=O)c2c1C(=O)NC1CCCCC1` showed an RP-LC retention time of 716 s.
The compound `COc1ccc(NS(=O)(=O)c2c(C)nn(-c3ccc(-c4ccc(C)cc4)nn3)c2C)cc1F` registered an RP-LC retention time of 999 s.
For the compound `Cc1ccc(NC(=O)c2nc(C)oc2C)c(F)c1`, the RP-LC retention time came to 946 s.
`COc1c(C(=O)NCCN2CCCCC2C)sc2cc(Cl)ccc12` (stereo not given): the RP-LC retention time worked out at 710 s.
The compound `COc1cccc(-c2cn3ccn(-c4ccc(OC)c(Cl)c4)c(=O)c3n2)c1` registered an RP-LC retention time of 850 s.
On to `Cc1ccc(NC(=O)Cn2nc(N3CCSCC3)c3ccccc3c2=O)c(C)c1`, for which the RP-LC retention time is 940 s.
As to `Cc1nnc2ccc(-c3noc(Cc4cccc(F)c4)n3)cn12`, the RP-LC retention time was found to be 787 s.
Regarding `O=C(COc1ccc(F)cc1)Nc1nc(CN2CCc3ccccc3C2)cs1`, the RP-LC retention time was 608 s.
The figure for `CC(C)NC(=O)c1ccc(OCC2CCCN2C(=O)c2ccc(C(F)(F)F)cc2)cc1` (stereo not given) is 914 s; for `CC(C)CNC(=O)COc1cccc2ccccc12` it is 896 s; for `CC1CCN(c2nn(CC(=O)Nc3ccc(F)cc3)c(=O)c3ccccc23)CC1` it is 1120 s.
As to `Cc1ccc(N2CCC(NC(=O)c3cccc(C#N)c3)C2=O)cc1C` (stereo not given), the RP-LC retention time was 847 s.
Consider `CN1CCn2cc(S(=O)(=O)Nc3ccc(C#N)cc3)cc2C1=O`, for which the RP-LC retention time turned out to be 662 s.
In the case of `Cc1ccc(NC(=O)NCc2ccnc(N3CCSCC3)c2)c(C)c1`, the RP-LC retention time amounted to 631 s.
On to `CCc1ccc(S(=O)(=O)N2CCC(c3nc(C(=O)N4CCCC4)c(C)o3)CC2)cc1`, for which the RP-LC retention time was 1010 s.
The compound `CCCS(=O)(=O)c1nc2ccc(NS(=O)(=O)c3cccc(F)c3)cc2s1` gave an RP-LC retention time of 918 s.
The compound `CC(=O)c1cccc(NC(=O)N2CCc3nc[nH]c3C2)c1` had an RP-LC retention time of 556 s.
Then `NC(=O)C1CCN(C(c2cccc(Cl)c2)c2sc3nc(-c4ccco4)nn3c2O)CC1` (stereo not given), with 717 s; and `Cc1ccc(NC(=O)NC(C)C(=O)N2CCc3ccccc32)c(Cl)c1` (stereo not given), with 967 s.
In turn, `CC(=O)N[C@@H]1CN(C(=O)COc2ccc(Cl)cc2)C[C@H]1CO` had an RP-LC retention time of 633 s.
Regarding `Cc1nn(C(C)C(=O)Nc2ccc(Cl)cc2)c(=O)c2c(-n3cccc3)n(-c3ccccc3)nc12` (stereo not given), the RP-LC retention time was found to be 1160 s.
`Cc1ccc(NC(=O)N2CCC(C(C)C(=O)Nc3cc(F)ccc3F)CC2)cc1` (stereo not given) returned an RP-LC retention time of 653 s.
Compound `COc1ccc(N2CCN(C(=O)c3ccc4c(c3)CC(=O)N4C)CC2)cc1` showed an RP-LC retention time of 801 s.
The figure for `Cc1cc(Cl)ccc1N1C(=O)CN(S(C)(=O)=O)CC1(C)C(=O)NC1CCCCCCC1` (stereo not given) is 1010 s; for `Cc1ccc2cc(CCC(=O)N(C)Cc3cn(C)nc3C)c(=O)[nH]c2c1` it is 645 s.
In the case of `Cc1nnc2ccc(S(=O)(=O)Nc3cccc(Cl)c3)cn12`, the RP-LC retention time was 724 s.
Compound `Cc1ccc2c(c1)N(C(=O)Cn1c(=O)n(C3CC3)c(=O)c3nscc31)CCO2` yielded an RP-LC retention time of 773 s.
Regarding `COc1ccc(Cl)cc1NC(=O)Cn1nc2cc(-c3ccccc3)nc(C)n2c1=O`, the RP-LC retention time stood at 974 s.
Consider `Cn1nc(CNC(=O)c2cccc(Cl)c2)c2ccccc21`, for which the RP-LC retention time was found to be 938 s.
As to `CCc1cccc(C)c1NC(=O)Cn1c(N(C)Cc2ccccc2)nc(C)cc1=O`, the RP-LC retention time amounted to 857 s.
The compound `Cc1cc(C)n(CC(=O)N2CCN(c3ccccc3O)CC2)n1` came in with an RP-LC retention time of 604 s.
Take `CCn1c(=O)sc2cc(S(=O)(=O)N3CCC(C(=O)Nc4ccc(C)cc4C)CC3)ccc21`: the RP-LC retention time is 932 s.
`CS(=O)(=O)c1ccc(Sc2nc3ccccc3s2)c([N+](=O)[O-])c1` registered an RP-LC retention time of 900 s.
As for `COc1ccc(-c2nc3ncccn3c2Nc2ccc(C)c(Cl)c2)cc1`, the RP-LC retention time is 821 s.
Then `CC(C)(C)NC(=O)N1CCCCC1c1nncn1-c1ccccc1` (stereo not given), with 712 s; and `Cc1nc(OCC(=O)Nc2ccc(Cl)cc2Cl)c2ccccc2n1`, with 831 s; and `Cc1cccc(NC(=O)Cn2nc(C(=O)N3CCCC3)c3ccccc32)c1`, with 842 s.
`Cc1nc(-c2cccc(-c3noc(COc4ccc(Cl)cc4)n3)c2)cs1` returned an RP-LC retention time of 1280 s.
Consider `COc1ccc(C2C(=O)N(CCc3ccccc3)CC(=O)N2Cc2cccs2)cc1` (stereo not given), for which the RP-LC retention time was 964 s.
`COc1ccc(NC(=O)Cn2nc3nc(Nc4ccc(F)cc4)ccn3c2=O)cc1Cl` returned an RP-LC retention time of 718 s.
`O=C(NC1CCCCCC1)c1ccnc(N2CCNC(c3ccccc3)C2)c1` (stereo not given): the RP-LC retention time was found to be 684 s.
Take `O=C(c1ccc2cc[nH]c2c1)N1C[C@@H]2C[C@H]1C[C@@H]2NS(=O)(=O)c1cccs1`: the RP-LC retention time worked out at 754 s.
As to `Cc1ccc(CC(=O)NC2CCN(c3nnc4ccc(C(F)(F)F)cn34)CC2)cc1`, the RP-LC retention time stood at 815 s.
For the compound `CCCC(=O)N1CCN(c2nc3ccccc3n(CC(C)C)c2=O)CC1`, the RP-LC retention time was 1000 s.
